Test results taken from patent US20010006673A1, “LUTEIN- CONTAINING SUPPLEMENT AND PROCESS FOR ENHANCING IMMUNE RESPONSE IN ANIMALS” (priority 1998, published 2001).

Key:
mouse splenocytes = settings: dietary lutein; cited from earlier work
IgG = assay: Serum IgG by single radial immunodiffusion, cats; type: in vivo, Tabby cats
Experimental: Serum IgG concentration was determined by single radial immunodiffusion (SRID). Goat antiserum to cat IgG (15%, whole molecule) (Sigma, St. Louis, Mo.) was incorporated into agarose (10 g/L in PBS; Sigma, St. Louis, Mo.). The loading volume for the test serum and standard was 5 μL and the plates were incubated for 24 hours in a humidified chamber. Ring diameters were measured using a SRID reader (Transidyne General Corp., Ann Arbor, Mich.).

Splenocytes = settings: splenocytes from mice injected peritoneally; cited from earlier work
[1] = Stability of lutein in prepared cat food; type: physicochemical; settings: diets mixed weekly, stored at −20° C. in sealed containers under nitrogen gas, analyzed periodically
Experimental: Prior to being fed to the cats, the lutein-containing diet was mixed with additional basal diet to achieve the desired lutein concentration. The final diets were mixed weekly and stored at −20° C. in sealed containers undernitrogen gas. […] Food and water were available ad libitum. Cats were housed (7 cats/pen; 1.5×5.0 m) in a temperature (20 to 22° C.) and light (14 h light) controlled facility.

[2] = design: species or system Beagle dogs; settings: dog, in vivo
Experimental: (§1) Fifty six female Beagle dogs (17 to 18 months old; average body weight 11.4±0.4 kg) were randomly assigned to be supplemented daily with 0, 5, 10 or 20 mg lutein for 17 weeks. The lutein contained 76.66% lutein and 5.23% zeaxanthin. The lutein supplement was resuspended in soybean oil to the appropriate concentration and 1 mL administered perorally at 0800 h daily. Food (200 g/dog/d) was offered immediately after the lutein supplementation. The basal diet shown in Table 1 below met or exceeded the requirements for all essential nutrients (NRC 1985).
All dogs were housed in 2×2 m pens (2 dogs/pen) in a temperature (20 to 22° C.) and light (14 h light) controlled facility. Body weight was recorded at weeks 0, 6, and 12.

[3] = tested on: transplantable murine mammary tumor cell line; settings: mice, dietary lutein; cited from earlier work
[4] = tested on: malondialdehyde (MDA) production; assay: Lipid peroxidation (TBARS) assay, dog plasma; type: in vivo, Beagle dogs; settings: dogs
Experimental: Plasma lipid peroxidation activity was determined by measuring malondialdehyde (MDA) production. The standard used was 1,1,3,3-tetramethoxypropane JMP) (Sigma Chem. Co., St. Louis, Mo.). Duplicate 500 μL plasma samples were pipetted into 15 ml, glass tubes and 3 mL of 10 g/L phosphoric acid and 1 ml of 6 g/L TBA solution were added. The mixture was boiled in a water bath for 45 minutes. Tubes were allowed to cool and the TBA-MDA complex was extracted with 4 ml of n-butanol. The butanol layer was separated by centrifugation at 1,000×g for 10 minutes and absorbance was measured on at 532 nm (Beckman, Fullerton, Calif.). The TBARS activity was expressed in nmole MDA/L plasma.

[5] = tested on: lymphocyte subsets (CD5, CD4, CD8, MHC class II, CD21); assay: Lymphocyte subsets by flow cytometry, dogs; type: in vivo, Beagle dogs
Experimental: Blood leukocytes were separated using Histopaque-1119 (Sigma, St. Louis, Mo.). Cells were washed three times with phosphate-buffered saline (PBS, pH 7.4) and contaminating erythrocytes were lysed in NH4CI (8.4 g/L). Lymphocyte subsets were determined by flow cytometry (FACScan, Becton Dickinson, San Jose, Calif.). Isolated mononuclear cells were resuspended to 1×10^7 cells/mL in PBS supplemented with 2% gamma globulin-free serum, 5% goat serum and 0.2 g/L sodium azide. For immunofluorescence analysis, a total of 5×10^5 cells were incubated for 30 minutes on ice with optimal concentrations of mouse anti-canine monoclonal antibody (mAb). The mAb used were specific for the following lymphocyte subsets: total T cells (anti-CD5), T-helper cells (anti-CD4), T-cytotoxic/suppressor cells (anti-CD8), lymphocytes expressing major histocompatability complex (MHQ class II antigens (anti-MHC class II), and B cells (anti-CD21). Cells were then washed three times and incubated with a secondary antibody, fluorescein isothiocyanate (FITC)-conjugated goat F(ab′)2 anti-mouse IgG+IgM (H+L) (Caltag, Burlingame, Calif.), for 30 minutes on ice to visualize the bound mAb. Stained cells were fixed in 4% paraformaldehyde in preparation for acquisition. Appropriate negative controls were included to correct for background fluorescence. Data were expressed as the percentage of positive-staining cells corrected for cells stained nonspecifically with the secondary antibody.

[6] = Plasma extraction and HPLC analysis in dogs (lutein+zeaxanthin, retinol, α-tocopherol); type: in vivo, Beagle dogs
Experimental: as §1
(§2) Blood was collected by jugular venipuncture into heparinized evacuated tubes on weeks 0, 2, 4, 8 and 12 and aliquots used for HPLC analysis and for assessing immune responses.
Plasma was extracted for analysis of lutein, zeaxanthin, retinol and α-tocopherol. Briefly, plasma protein was precipitated by adding an equal volume of ethanol containing 0.1% butylated hydroxytoluene (BHT) (Aldrich Chemical Co., Milwaukee, Wis.). The mixture was extracted with 5 mL of a 1:1 mixture of petroleum ether:anhydrous diethyl ether.
The dried residue was resuspended in mobile phase consisting of a 47:47:6 (v:v:v) mixture of HPLC-grade acetonitrile: methanol: chloroform (Fisher Scientific, Fair Lawn, N.J.). Lutein, zeaxanthin and α-tocopherol were quantitated by comparing the area under the curve whereas retinol was quantitated using peak height. The identity of the eluted compounds was confirmed by comparing their absorption spectrum with that of pure standards. Because baseline separation of lutein and zeaxanthin was not accomplished, plasma concentrations were reported as lutein+zeaxanthin.

[7] = design: species or system Tabby cats; settings: in vivo
Experimental: as §2
Plasma lutein, retinol and α-tocopherol were analyzed by reverse phase HPLC. Briefly, plasma protein was precipitated with an equal volume of ethanol containing 0.1% butylated hydroxytoluene (BHT) (Aldrich Chemical Co., Milwaukee, Wis.). The mixture was extracted with 5 mi of a 1:1 mixture of petroleum ether:anhydrous diethyl ether and the dried residue resuspended in mobile phase. The mobile phase was a mixture of acetonitrile, methanol and chloroform (47:47:6, v/v/v). The internal standard used was retinyl acetate (Sigma Chem. Co., St. Louis, Mo.). Samples were eluted on a 5 μm C18 reverse phase column (3.9×150 mm; Resolve, Millipore Corp., Milford Mass.) with a flow rate of 1.0 ml/min. The identity of the eluted compounds was verified by comparing their absorption spectra with those of standard compounds.

## CC1=C[C@H](O)CC(C)(C)[C@H]1/C=C/C(C)=C/C=C/C(C)=C/C=C/C=C(C)/C=C/C=C(C)/C=C/C1=C(C)C[C@@H](O)CC1(C)C [lutein]
Mouse splenocytes
  Lymphocyte proliferation: enhance
IgG; cats fed 10 mg lutein, week 12
  Plasma IgG vs unsupplemented animals: significantly higher
IgG; cats fed 1 or 10 mg lutein, week 8
  Concentrations of plasma IgG: significantly higher
Splenocytes
  Antibody response to T-dependent antigens: enhanced
[1]
  Destruction of lutein in prepared food: no significant destruction
[2]
  Body weight average: 11.4 ± 0.4 kg
  Effect on changes in body weight: did not significantly affect
[3]
  Mammary tumor incidence: decreases
  Tumor growth: decreases
  Tumor latency: shortened
[4]
  Effect on plasma TBARS activity: did not significantly affect
[4]; across all treatments and periods
  Plasma TBARS activity, average: 95.8±0.1 nmol MDA/L
[5]; dogs
  CD21+ B cell population: did not significantly influence
[5]; dogs fed 20 mg lutein, week 8
  % CD8+ T cytotoxic cells vs control: significantly higher
[5]; dogs fed 20 mg lutein, week 8 and 12
  % MHC class II cell populations vs unsupplemented dogs: elevated
[5]; dogs fed 5 and 10 mg lutein, week 12
  % CD4+ cells: higher
[5]; dogs, week 12
  CD8+ population: not influenced
[5]; dogs, weeks 4 and 8, statistically significant with 5 and 20 mg lutein
  Percentages of CD5+ cells vs unsupplemented controls: higher
[6]; dogs fed 10 and 20 mg lutein, after week 2, more gradually
  Plasma concentrations of lutein+zeaxanthin: continued to increase
[6]; dogs, weeks 2 through 12, P<0.05
  Plasma lutein+zeaxanthin vs unsupplemented animals: significantly higher
[6]; lutein-supplemented dogs, after 2 weeks of feeding
  Plasma concentrations of lutein+zeaxanthin: increased rapidly
[7]
  Plasma lutein: increased in a dose-dependent manner
